Article PMC12042115 (mLife, 2025)
Like-named read-outs stand apart in the source and are kept apart here.

Tested on: wild‐type BCG cells
Format: cell-based, M. bovis BCG
Conditions: for Mean_Ratio (GDI5755_3d vs DMSO_3d): down-regulated, 3 d; for Mean Ratio: GDI5755_2d vs DMSO_2d; for Mean Ratio / Mean Ratio (GDI5755_2d vs DMSO_2d): up-regulated; for Mean Ratio (GDI5755_2d vs DMSO_2d): 2d

## O=C(Oc1ccc(Cl)cc1)c1ccc(N2CCOCC2)c([N+](=O)[O-])c1 [GDI‐5755]
Protein A0A0H3MBJ1, BCG_2011c (Rv1994c), HTH-type transcriptional regulator CmtR
  Mean_Ratio (GDI5755_3d vs DMSO_3d): 0.738
Protein A0A0H3MBK5 Phosphate-binding protein PstS3
  Mean Ratio: 1.29
Protein A0A0H3MBM4 NAD(P)H nitroreductase acg
  Mean Ratio: 1.30
Protein A0A0H3MBN2 Nuclear transport factor 2 domain-containing protein
  Mean Ratio: 1.27
Protein A0A0H3MBN6 Amidohydrolase 3 domain-containing protein
  Mean Ratio: 1.27
Protein A0A0H3MBR5 Probable acetyl-/propionyl-coa carboxylase (Beta subunit) accD2
  Mean Ratio (GDI5755_2d vs DMSO_2d): 1.32
Protein A0A0H3MBT4 Probable conserved lipoprotein LppL
  Mean Ratio: 1.32
Protein A0A0H3MBZ9 Probable conserved transmembrane protein alanine and leucine rich
  Mean Ratio: 1.27
Protein A0A0H3MC34, BCG_2260 (Rv2243), Malonyl CoA-acyl carrier protein transacylase fabD
  Mean_Ratio (GDI5755_3d vs DMSO_3d): 0.7
Protein A0A0H3MC70, BCG_1203c (Rv1141c), Probable enoyl-CoA hydratase echA11
  Mean_Ratio (GDI5755_3d vs DMSO_3d): 0.7
Protein A0A0H3MC82, BCG_2311 (Rv2295), CbrC family protein
  Mean_Ratio (GDI5755_3d vs DMSO_3d): 0.745
Protein A0A0H3MC88, BCG_2317 (Rv2301), Cutinase
  Mean_Ratio (GDI5755_3d vs DMSO_3d): 0.7
Protein A0A0H3MCA1 Alpha/beta hydrolase
  Mean Ratio: 1.25
Protein A0A0H3MCB3, BCG_1267 (Rv1207), Dihydropteroate synthase
  Mean_Ratio (GDI5755_3d vs DMSO_3d): 0.7
Protein A0A0H3MCC0 Probable tetronasin-transport atp-binding protein ABC transporter
  Mean Ratio: 1.26
Protein A0A0H3MCD2 Transmembrane ATP-binding protein ABC transporter
  Mean Ratio: 1.25
Protein A0A0H3MCL1, BCG_1383 (Rv1322), ATP/GTP-binding protein
  Mean_Ratio (GDI5755_3d vs DMSO_3d): 0.7
Protein A0A0H3MCL6, BCG_2443c, AAA+ ATPase domain-containing protein
  Mean_Ratio (GDI5755_3d vs DMSO_3d): 0.751
Protein A0A0H3MD23 Possible exported conserved protein
  Mean Ratio: 1.30
Protein A0A0H3MDI1, BCG_3731c (Rv1665), Possible chalcone synthase pks11
  Mean_Ratio (GDI5755_3d vs DMSO_3d): 0.7
Protein A0A0H3MDQ0, BCG_2970c (Rv2949c), Chorismate pyruvate-lyase
  Mean_Ratio (GDI5755_3d vs DMSO_3d): 0.746
Protein A0A0H3MDQ9, BCG_2994c (Rv2972c), Possible conserved membrane or exported protein
  Mean_Ratio (GDI5755_3d vs DMSO_3d): 0.756
Protein A0A0H3MDS7 Probable conserved lipoprotein lppZ
  Mean Ratio (GDI5755_2d vs DMSO_2d): 1.35
Protein A0A0H3ME30 Possible oxidoreductase
  Mean Ratio: 1.30
Protein A0A0H3ME93, BCG_1959 (Rv1920), Probable membrane protein
  Mean_Ratio (GDI5755_3d vs DMSO_3d): 0.752
Protein A0A0H3MEA5 methanethiol S-methyltransferase
  Mean Ratio: 1.26
Protein A0A0H3MEB3 HNH nuclease domain-containing protein
  Mean Ratio: 1.25
Protein A0A0H3MEK1, BCG_3412 (Rv3342), Possible methyltransferase (Methylase)
  Mean_Ratio (GDI5755_3d vs DMSO_3d): 0.7
Protein A0A0H3MER9, BCG_3475c (Rv3405c), HTH-type transcriptional repressor
  Mean_Ratio (GDI5755_3d vs DMSO_3d): 0.758
Protein A0A0H3MEW3, BCG_3538c (Rv3473c), Possible peroxidase bpoA
  Mean_Ratio (GDI5755_3d vs DMSO_3d): 0.749
Protein A0A0H3MF17 Serine protease Hip1
  Mean Ratio (GDI5755_2d vs DMSO_2d): 1.35
Protein A0A0H3MF23 Possible CoA-transferase (Beta subunit)
  Mean Ratio: 1.25
Protein A0A0H3MF38 Glycerol-3-phosphate dehydrogenase
  Mean Ratio: 1.31
Protein A0A0H3MF62, BCG_2297c (Rv2282c), Probable transcription regulator (LysR family)
  Mean_Ratio (GDI5755_3d vs DMSO_3d): 0.737
Protein A0A0H3MFB8, BCG_3726c, Protease
  Mean_Ratio (GDI5755_3d vs DMSO_3d): 0.739
Protein A0A0H3MFJ3 Transcriptional regulatory protein (Probably arsR-family)
  Mean Ratio: 1.25
Protein A0A0H3MFK9 DSBA-like thioredoxin domain-containing protein
  Mean Ratio (GDI5755_2d vs DMSO_2d): 1.33
Protein A0A0H3MFL5 histidine kinase
  Mean Ratio (GDI5755_2d vs DMSO_2d): 1.35
Protein A0A0H3MFN8 Probable O-antigen/lipopolysaccharide transport integral membrane protein ABC transporter rfbD
  Mean Ratio: 1.29
Protein A0A0H3MFR0, BCG_2539c (Rv2518c), L,D-transpeptidase 2, ldtB/L,D-transpeptidase LdtMt2
  Mean_Ratio (GDI5755_3d vs DMSO_3d): 0.7
Protein A0A0H3MFS0 Acyltransferase
  Mean Ratio: 1.28
Protein A0A0H3MFX4 Protein translocase subunit SecD
  Mean Ratio: 1.31
Protein A0A0H3MG15, BCG_2663 (Rv2636), O-phosphotransferase
  Mean_Ratio (GDI5755_3d vs DMSO_3d): 0.7
Protein A0A0H3MG43 Probable antibiotic-transport ATP-binding protein ABC transporter
  Mean Ratio: 1.28
Protein A0A0H3MG65 Probable conserved transmembrane protein
  Mean Ratio: 1.25
Protein A0A0H3MG92 Conserved 35 kDa alanine rich protein
  Mean Ratio: 1.27
Protein A0A0H3MGD9 Metal-dependent hydrolase
  Mean Ratio: 1.32
Protein A0A0H3MGM3, BCG_2905 (Rv2884), Probable transcriptional regulatory protein
  Mean_Ratio (GDI5755_3d vs DMSO_3d): 0.744
Protein A0A0H3MGP1 Probable transcriptional regulatory protein (Probably tetR-family)
  Mean Ratio: 1.30
Protein A0A0H3MGS1 Probable integral membrane protein
  Mean Ratio: 1.30
Protein A0A0H3MGU7, BCG_3025c (Rv3003c), Acetolactate synthase
  Mean_Ratio (GDI5755_3d vs DMSO_3d): 0.7
Protein A0A0H3MH35 Hydroxylase
  Mean Ratio: 1.30
Protein A0A0H3MH58, BCG_3141 (Rv3116), PRobable molybdenum cofactor biosynthesis protein moeB2
  Mean_Ratio (GDI5755_3d vs DMSO_3d): 0.7
Protein A0A0H3MH84, BCG_3167c (Rv3144c), PPE family protein
  Mean_Ratio (GDI5755_3d vs DMSO_3d): 0.7
Protein A0A0H3MHH8, BCG_3287c (Rv3258c), DUF3499 domain-containing protein
  Mean_Ratio (GDI5755_3d vs DMSO_3d): 0.757
Protein A0A0H3MHJ0 Probable metal cation-transporting P-type atpase C ctpC
  Mean Ratio (GDI5755_2d vs DMSO_2d): 1.38
Protein A0A0H3MIJ3, BCG_3667c (Rv3603c), Conserved hypothetical alanine and leucine rich protein
  Mean_Ratio (GDI5755_3d vs DMSO_3d): 0.7
Protein A0A0H3MJ41 Uncharacterized protein
  Mean Ratio: 1.29
Protein A1KF76, BCG_0293c (Rv0255c), Cobyric acid synthase
  Mean_Ratio (GDI5755_3d vs DMSO_3d): 0.7
Protein A1KFU9 Heparin-binding hemagglutinin
  Mean Ratio: 1.29
Protein A1KGJ8, BCG_0767 (Rv0717), Small ribosomal subunit protein uS14B
  Mean_Ratio (GDI5755_3d vs DMSO_3d): 0.746
Protein A1KHB8 Signal transduction histidine-protein kinase/phosphatase MprB
  Mean Ratio: 1.30
Protein A1KHH0, BCG_1089 (Rv1031), Potassium-transporting ATPase KdpC subunit
  Mean_Ratio (GDI5755_3d vs DMSO_3d): 0.7
Protein A1KI12 Sec-independent protein translocase protein TatB
  Mean Ratio: 1.27
Protein A1KI86, BCG_1358 (Rv1298), Large ribosomal subunit protein bL31
  Mean_Ratio (GDI5755_3d vs DMSO_3d): 0.7
